Results as given in PMC3923778 (PLoS Currents, 2014).
“Also recorded” adds a separate entry of the source.

Assays:
R6/2 mice [1] = experiment: Rear Climbing Test; assay type: in vivo, mouse; conditions: for Rear Climbing Test Rearing Frequency: p vs Vehicle-treated R6/2 mice / Rear Climbing Test Climbing Instances: p vs Vehicle-treated R6/2 mice / Rear Climbing Test Latency to Climb: p vs Vehicle-treated R6/2 mice / Rear Climbing Test Time Spent Climbing: p vs Vehicle-treated R6/2 mice: BID
Procedure: (§1) Motor function testing including open field and rear climbing tests were commenced at 4 weeks of age and continued at weeks 6, 8 and 12, for grip strength test at age weeks 4 and 12 and for rotarod at age weeks 4, 6 and 8. Compound treatment was started at 4 weeks of age after the baseline behavioral tests.
Rear climbing test was performed at age weeks 4, 6, 8 and 12. The mice were tested on Tuesdays. Each animal was placed into custom made pencil holder, and was scored for 5 minutes. During this period the following events were noted: 1) number of times the mouse rears without touching the mesh walls, 2) latency to climb (lifting 4 paws from the floor is labeled climbing), 3) climbing time, and 4) climbing instances.
(§2) All values are presented as mean ± Standard Error of Mean (SEM), and differences are considered to be statistically significant at the p < 0.05 level. Statistical analysis was performed using StatsDirect statistical software. Differences between group means were analyzed by 1-way-ANOVA followed by Dunnett’s test (comparison to the control (=vehicle treated TG mice) group). The acquisition of the Cued two-choice swim test was analyzed using Fisher’s exact test.

PDE2A = biological target: T1, PDE2A (Homo sapiens, UniProt O00408); experiment: Cerep diversity panel screen at 10 µM; assay type: biochemical
T1 construct: Cerep (contract laboratory)
Procedure: (§3) Studies were conducted at Cerep (France)

PDE1B = biological target: T2, PDE1B (Homo sapiens, UniProt Q01064); experiment: Cerep diversity panel screen at 10 µM; assay type: biochemical
T2 construct: Cerep (contract laboratory)
Procedure: as §3

PDE1 = tested on: PDE1; set-up: method as in PMID 9216839, PMID 17697115, PMID 8961086, PMID 7581878; conditions: ref [12], [23], [27], [28], read-out: reported IC50; cited from earlier work
PDE9 = tested on: PDE9; set-up: method as in PMID 9216839, PMID 17697115, PMID 10618442, PMID 8961086, PMID 7581878; conditions: ref [12], [23], [25], [27], [28], read-out: previously reported potencies; cited from earlier work
disease-relevant genes = experiment: Taqman-qPCR of disease-relevant genes; assay type: in vivo, mouse; conditions: chronic administration; 13 weeks of age; lower dose group study
Procedure: Total RNA was extracted with the mini-RNA kit accordingly to manufacturer instructions (Qiagen). Reverse transcription (RT) was performed using MMLV superscript reverse transcriptase (Invitrogen) and random hexamers (Operon) and all Taqman-qPCR reactions were performed using the Chromo4 Real-Time PCR Detector (BioRad) as described. Expression level of the gene-of-interest was normalised to the geometric mean of three endogenous housekeeping genes (Primer Design) as described. […]

R6/2 mice [2] = experiment: Open Field Test; assay type: in vivo, mouse; conditions: Age Week 4; 10 mg/kg p.o., BID; ANOVA
Procedure: as §1
Open field test was performed at age weeks 4, 6, 8 and 12. The mice were tested on Mondays at approximately 10-30 lux of red light. The mice were brought to the experimental room for at least 1 h acclimation to the experimental room conditions prior to testing. Activity chambers (Med Associates Inc., St Albans, VT; 27 x 27 x 20.3 cm) are equipped with IR beams. Mice were placed in the center of the chamber and their behavior was recorded for 30 min in 5-minute bins. Quantitative analysis was performed on the following five dependent measures: total locomotion, locomotion in the center of the open field, rearing rate in the center, total rearing frequency and velocity.
as §2

[3] = Age Week 4, 10 mg/kg p.o., ANOVA
[4] = Age Week 4, 30 mg/kg p.o., ANOVA
[5] = Age Week 6, 10 mg/kg p.o., ANOVA
[6] = Age Week 6, 30 mg/kg p.o., ANOVA
[7] = Age Week 8, 10 mg/kg p.o., ANOVA
[8] = Age Week 8, 30 mg/kg p.o., ANOVA
[9] = Age Week 12, 10 mg/kg p.o., ANOVA
[10] = Age Week 12, 30 mg/kg p.o., ANOVA

T2 sequence (Q01064 whole entry, species assumed): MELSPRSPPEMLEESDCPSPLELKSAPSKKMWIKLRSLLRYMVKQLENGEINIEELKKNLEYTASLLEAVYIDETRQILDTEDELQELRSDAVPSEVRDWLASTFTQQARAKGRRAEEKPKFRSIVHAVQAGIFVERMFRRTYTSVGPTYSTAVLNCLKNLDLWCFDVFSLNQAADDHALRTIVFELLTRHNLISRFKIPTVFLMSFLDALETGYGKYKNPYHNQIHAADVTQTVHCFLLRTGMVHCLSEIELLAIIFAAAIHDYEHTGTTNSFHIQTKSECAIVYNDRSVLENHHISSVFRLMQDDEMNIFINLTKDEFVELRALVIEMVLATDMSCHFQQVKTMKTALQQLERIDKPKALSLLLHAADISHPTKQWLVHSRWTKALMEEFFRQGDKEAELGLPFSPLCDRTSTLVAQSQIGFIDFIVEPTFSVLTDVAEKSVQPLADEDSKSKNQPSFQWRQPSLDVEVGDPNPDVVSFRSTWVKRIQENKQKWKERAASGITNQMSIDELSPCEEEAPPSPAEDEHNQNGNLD
T1 sequence (O00408 whole entry, species assumed): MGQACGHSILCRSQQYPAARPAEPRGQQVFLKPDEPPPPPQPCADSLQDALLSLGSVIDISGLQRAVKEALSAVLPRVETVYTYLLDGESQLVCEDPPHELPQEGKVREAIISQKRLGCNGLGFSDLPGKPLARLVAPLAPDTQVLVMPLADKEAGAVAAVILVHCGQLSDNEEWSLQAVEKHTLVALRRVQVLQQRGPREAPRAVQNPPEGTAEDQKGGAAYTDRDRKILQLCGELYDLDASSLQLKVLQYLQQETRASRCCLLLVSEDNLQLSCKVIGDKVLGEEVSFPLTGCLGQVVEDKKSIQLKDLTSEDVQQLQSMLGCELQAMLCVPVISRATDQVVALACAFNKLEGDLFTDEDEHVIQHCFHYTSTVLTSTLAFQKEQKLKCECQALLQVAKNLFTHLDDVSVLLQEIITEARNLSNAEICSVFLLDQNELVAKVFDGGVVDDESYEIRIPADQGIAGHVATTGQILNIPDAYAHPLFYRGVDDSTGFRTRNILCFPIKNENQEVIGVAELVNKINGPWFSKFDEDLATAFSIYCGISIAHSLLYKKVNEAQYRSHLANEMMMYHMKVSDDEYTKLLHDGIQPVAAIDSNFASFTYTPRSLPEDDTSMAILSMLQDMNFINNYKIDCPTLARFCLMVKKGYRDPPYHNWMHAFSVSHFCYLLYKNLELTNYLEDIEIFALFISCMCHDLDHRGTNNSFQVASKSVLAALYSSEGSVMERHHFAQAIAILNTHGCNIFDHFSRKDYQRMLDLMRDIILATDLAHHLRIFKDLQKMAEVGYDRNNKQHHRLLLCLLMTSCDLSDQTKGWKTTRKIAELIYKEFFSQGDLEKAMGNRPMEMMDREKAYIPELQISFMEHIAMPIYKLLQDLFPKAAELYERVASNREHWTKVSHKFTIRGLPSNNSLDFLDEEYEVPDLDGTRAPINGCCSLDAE

For CN1C(=O)c2nc(Cc3ccc(C(F)(F)F)cc3)[nH]c2N2C1=N[C@H]1CCC[C@H]12 [SCH-51866, (+)-cis-5,6a,7,8,9,9a-hexahydro-2-[4-[trifluro-methyl]phenylmethyl]-5-methyl-cylopent[4,5]imidazo [2,1-b]purin-4(3H)one], the “Rear Climbing Test Rearing Frequency: p vs Vehicle-treated R6/2 mice” value (R6/2 mice [1]; Age Week 4, 10 mg/kg p.o.) was “p=0.507”, the “Rear Climbing Test Climbing Instances: p vs Vehicle-treated R6/2 mice” value (R6/2 mice [1]; [3]) was “ANOVA: p=0.484” and the “Rear Climbing Test Latency to Climb: p vs Vehicle-treated R6/2 mice” value (R6/2 mice [1]; [3]) was “ANOVA: p=0.365”. For the same compound, the “Rear Climbing Test Time Spent Climbing: p vs Vehicle-treated R6/2 mice” value (R6/2 mice [1]; [3]) was “ANOVA: p=0.853”, the “Rear Climbing Test Rearing Frequency: p vs Vehicle-treated R6/2 mice” value (R6/2 mice [1]; Age Week 4, 30 mg/kg p.o.) was “p=0.186” and the “Rear Climbing Test Climbing Instances: p vs Vehicle-treated R6/2 mice” value (R6/2 mice [1]; [4]) was “ANOVA: p=0.484”. The “Rear Climbing Test Latency to Climb: p vs Vehicle-treated R6/2 mice” value (R6/2 mice [1]; [4]) was “ANOVA: p=0.365”, the “Rear Climbing Test Time Spent Climbing: p vs Vehicle-treated R6/2 mice” value (R6/2 mice [1]; [4]) was “ANOVA: p=0.853” and the “Rear Climbing Test Climbing Instances: p vs Vehicle-treated R6/2 mice” value (R6/2 mice [1]; [5]) was “ANOVA: p=0.120”. The “Rear Climbing Test Latency to Climb: p vs Vehicle-treated R6/2 mice” value (R6/2 mice [1]; [5]) was “ANOVA: p=0.257”, the “Rear Climbing Test Rearing Frequency: p vs Vehicle-treated R6/2 mice” value (R6/2 mice [1]; [5]) was “ANOVA: p=0.203” and the “Rear Climbing Test Time Spent Climbing: p vs Vehicle-treated R6/2 mice” value (R6/2 mice [1]; [5]) was “ANOVA: p=0.291”. The “Rear Climbing Test Climbing Instances: p vs Vehicle-treated R6/2 mice” value (R6/2 mice [1]; [6]) was “ANOVA: p=0.120”, the “Rear Climbing Test Latency to Climb: p vs Vehicle-treated R6/2 mice” value (R6/2 mice [1]; [6]) was “ANOVA: p=0.257” and the “Rear Climbing Test Rearing Frequency: p vs Vehicle-treated R6/2 mice” value (R6/2 mice [1]; [6]) was “ANOVA: p=0.203”. The “Rear Climbing Test Time Spent Climbing: p vs Vehicle-treated R6/2 mice” value (R6/2 mice [1]; [6]) was “ANOVA: p=0.291”, the “Rear Climbing Test Climbing Instances: p vs Vehicle-treated R6/2 mice” value (R6/2 mice [1]; [7]) was “ANOVA: p=0.166” and the “Rear Climbing Test Latency to Climb: p vs Vehicle-treated R6/2 mice” value (R6/2 mice [1]; [7]) was “ANOVA: p=0.193”. The “Rear Climbing Test Rearing Frequency: p vs Vehicle-treated R6/2 mice” value (R6/2 mice [1]; [7]) was “ANOVA: p=0.782”, the “Rear Climbing Test Time Spent Climbing: p vs Vehicle-treated R6/2 mice” value (R6/2 mice [1]; [7]) was “ANOVA: p=0.750” and the “Rear Climbing Test Climbing Instances: p vs Vehicle-treated R6/2 mice” value (R6/2 mice [1]; [8]) was “ANOVA: p=0.166”. The “Rear Climbing Test Latency to Climb: p vs Vehicle-treated R6/2 mice” value (R6/2 mice [1]; [8]) was “ANOVA: p=0.193”, the “Rear Climbing Test Rearing Frequency: p vs Vehicle-treated R6/2 mice” value (R6/2 mice [1]; [8]) was “ANOVA: p=0.782” and the “Rear Climbing Test Time Spent Climbing: p vs Vehicle-treated R6/2 mice” value (R6/2 mice [1]; [8]) was “ANOVA: p=0.750”. The “Rear Climbing Test Climbing Instances: p vs Vehicle-treated R6/2 mice” value (R6/2 mice [1]; [9]) was “ANOVA: p=0.671”, the “Rear Climbing Test Latency to Climb: p vs Vehicle-treated R6/2 mice” value (R6/2 mice [1]; [9]) was “ANOVA: p=0.846” and the “Rear Climbing Test Rearing Frequency: p vs Vehicle-treated R6/2 mice” value (R6/2 mice [1]; [9]) was “ANOVA: p=0.122”. The “Rear Climbing Test Time Spent Climbing: p vs Vehicle-treated R6/2 mice” value (R6/2 mice [1]; [9]) was “ANOVA: p=0.724”, the “Rear Climbing Test Climbing Instances: p vs Vehicle-treated R6/2 mice” value (R6/2 mice [1]; [10]) was “ANOVA: p=0.671” and the “Rear Climbing Test Latency to Climb: p vs Vehicle-treated R6/2 mice” value (R6/2 mice [1]; [10]) was “ANOVA: p=0.846”. The “Rear Climbing Test Rearing Frequency: p vs Vehicle-treated R6/2 mice” value (R6/2 mice [1]; [10]) was “ANOVA: p=0.122”, the “Rear Climbing Test Time Spent Climbing: p vs Vehicle-treated R6/2 mice” value (R6/2 mice [1]; [10]) was “ANOVA: p=0.724” and the “rearing frequency and latency to climb a custom-made pencil holder, effect in words” value (R6/2 mice [1]; chronic administration in R6/2 mice) was “no improvement”. For the same compound, the inhibition at 10 µM (PDE2A) was 92%, the inhibition at 10 µM (PDE1B) was 100% and the IC50 (PDE1) was 0.07 µM. For the same compound, the IC50 (PDE9) was 44 µM, the “expression of disease-relevant genes in striatum, cortex and cerebellum” value (disease-relevant genes) was “did not have a statistically significant effect; also recorded: no effects on the dysregulation of these genes” and the “Open Field Average Velocity: p vs Vehicle-treated R6/2 mice” value (R6/2 mice [2]) was “ANOVA: p=0.461”. The “Open Field Center Distance: p vs Vehicle-treated R6/2 mice” value (R6/2 mice [2]) was “ANOVA: p=0.701” and the “Open Field Rearing Rate in Center: p vs Vehicle-treated R6/2 mice” value (R6/2 mice [2]) was “ANOVA: p=0.341”.
